Experimental findings from patent EP0719552A2, “Pharmaceutical composition comprising a quinone derivative or a hydroquinone thereof for treating dermatitis” (Takeda Chemical Industries, Ltd., priority 1994, dated 1996) are described below.

In experiment [1] the test system is IL-4. Description: Ascaris-immunized mouse splenocytes (in vitro): IL-4 production, ELISA. The conditions noted are these: Splenocyte, 72 h, 25 µM drug, 40 µg/ml DNP-ascaris, 3 days, production in absence of compound taken as 100%, read-out: Suppression Rate (%) IL-4. It counts as cell-based, Balb/c mice. The method, then:
(§1) Method: Female Balb/c mice at 9 weeks of age (purchased from Shizuoka Laboratory Animal Center, Japan) were intraperitoneally administered 40 µg/mouse DNP-ascaris (2,4-dinitrophenylated ascaris extract, produced by LSL), together with Freund's complete adjuvant (FCA, produced by Difco, USA), and, 3 weeks later, splenocytes were collected. Splenocyte mixture was prepared from the spleens and suspended in RPMI-1640 medium (produced by Bio Whittaker, Inc., USA) containing inactivated fetal bovine serum (10% v/v, produced by Difco, USA), 2-mercaptoethanol (50 µM), L-glutamine (2 mM) and gentamicin (20 µg/ml) to yield a single cell suspension. After cell number was set to 3.3 × 10^6 cells/ml, DNP-ascaris was added to 96-well round-bottomed plates (produced by Sumitomo Bakelite Co., Ltd., Japan) containing a 25 µM test drug, at 12.5 µg/ml, and cultured at 37°C for 3 days in a 5% carbon dioxide incubator. After completion of cultivation, 3-(4,5-dimethylthiazol-2-yl)-2,5-diphenyl-tetrazolium bromide (MTT, produced by Dojin Kenkyujo, Japan) in PBS buffer was added to each well at 0.86 mg/ml, followed by cultivation in the carbon dioxide incubator for 6 hours. To this culture, a 10% SDS-0.01 N HCl mixture was added at 50 µl per well, followed by incubation in the carbon dioxide incubator for 18 hours, after which absorbance at 620 nm was determined.
Next, DNP-ascaris was added to a 1.2 × 10^6 cells/ml splenocyte suspension in each 96-well round-bottomed plate containing a drug (25 µM), at 40 µg/ml, and cultured at 37°C for 3 days in the 5% carbon dioxide incubator. After this culture was centrifuged at 200 x g for 5 minutes, the culture supernatant was collected, and, the amount of IL-4 produced in each supernatant was determined by ELISA [mouse IL-4 ELISA kit (produced by Endogen, USA)].
On the technique in general: ELISA stands for enzyme-linked immunosorbent assay.

Experiment [2] relates to ascaris-immunized mouse splenocytes. Description: Ascaris-immunized mouse splenocytes (in vitro): DNP-ascaris stimulated growth, MTT. It counts as cell-based, Balb/c mice. The conditions noted are these: Splenocyte, 72 h, 25 µM test drug, 12.5 µg/ml DNP-ascaris, 3 days, absorbance in absence of compound taken as 100%, read-out: Suppression Rate (%) MTT. The procedure:
as §1

The test system of experiment [3] is IL-5. Briefly: Ascaris-immunized mouse splenocytes (in vivo dosing): IL-5 production, ELISA. The conditions noted are these: 100 mg/kg/day orally 5 times weekly for 3 weeks; splenocytes cultured with 40 µg/ml DNP-ascaris 3 days; non-sensitized taken as 1 (sensitized 0.5% MC control 43.3). More on the design: species or system Balb/c mice. The procedure: (§2) Method: Female Balb/c mice at 9 weeks of age (purchased from Shizuoka Laboratory Animal Center, Japan) were intraperitoneally administered 40 µg/mouse DNP-ascaris (2,4-dinitrophenylated ascaris extract, produced by LSL) together with Freund's complete adjuvant (FCA, produced by Difco, USA), 3 weeks later, splenocytes were collected. The compound 1((±)-7-(3,5,6-trimethyl-1,4-benzoquino-2-yl)-7-phenylheptonoic acid) was suspended in 0.5% methyl cellulose (MC) and orally administered at 100 mg/kg/day 5 times weekly for 3 weeks, starting at the day before DNP-ascaris administration. […] To this culture, a 10% SDS-0.01N HCl mixture was added at 50 µl per well, followed by incubation in the carbon dioxide incubator for 18 hours, after which absorbance at 620 nm was determined.
(§3) Next, DNP-ascaris was added to a 1.2 × 10^6 cells/ml splenocyte suspension in each 96-well round-bottomed plate at 40 µg/ml and cultured at 37°C for 3 days in the 5% carbon dioxide incubator. After this culture was centrifuged at 200 x g for 5 minutes, the culture supernatant was collected, and, the amounts of IL-4 and IL-5 produced in each supernatant were determined by ELISA [mouse IL-4 ELISA kit (produced by Endogen, USA); mouse IL-5 ELISA kit (produced by Endogen, USA)].

The test system of experiment [4] is IL-4. Briefly: Ovalbumin-immunized mouse splenocytes (oral dosing): IL-4 production, ELISA. It counts as in vivo, Balb/c mice. The conditions noted are these: 100 mg/kg orally for two weeks, 10 ug/ml OVA 3 days. The method, then: (§4) Method: Seven-week-old made Balb/c mice (Charles River Japan) were used. Mice were immunized i.p. with 1 ug ovalbumin (OVA, albumin chicken egg grade III; Sigma, USA) in aluminium hydroxide hydrate gel suspension (Alum, ISL Co., Ltd., Japan) twice at an unterval of a week. Two weeks after first immunization, spleens were asceptically removed, and single cell suspension was prepared in RPMI-1640 (Bio Whittaker, Inc., USA) containing 10% heat-inactivated fetal calf serum (FCS, Bio Whittaker, Inc., USA), 50 uM 2-mercaptoethanol, 2 mM L-glutamine, and 20 ug/ml gentamicin. Compound 1((+)-7-(3,5,6-trimethyl-1,4-benzoquino-2-yl)-7-phenylheptonoic acid) at 100 mg/kg suspended with 0.5% methyl cellulose (MC) was given orally in a volume of 10 ml/kg for two weeks from a day before first immunization. Splenocytes (3.3 × 10^6 cells) were cultured with 10 ug/ml OVA in 125-ml wells of a 96-well round-bottomed tissue culture plate (Sumitomo Bakelite Co., Ltd., Japan) and were kept in a humidified incubation at 37°C in 5% CO2 in air for three days.
(§5) To study the effect of the drug on the cytokine production, after centrifuged at 200×g for 5 minutes, the supernatant of the culture well was removed and its IL-4 and IL-5 contents were measured by ELISA kits (Endogen, USA).

Experiment [5] has as its system ovalbumin-immunized mouse splenocytes. Description: Ovalbumin-immunized mouse splenocytes (oral dosing): OVA-specific growth response, MTT. The conditions noted are these: 100 mg/kg orally for two weeks; splenocytes cultured with 10 ug/ml OVA 3 days; non-sensitized taken as 1 (sensitized 0.5% MC control 2.07). In kind it is in vivo, Balb/c mice. The procedure: as §4, with “Splenocytes (3.3 × 10^6 cells) were cultured with 10 ug/ml OVA in 125-ml wells of a 96-well round-bottomed tissue culture plate (Sumitomo Bakelite Co., Ltd., Japan) and were kept in a humidified incubation at 37°C in 5% CO2 in air for three days.” left out
To study the effect of drug on the proliferation, 50 ul of 3 mg/ml 3(4,5-dimethylthiazol-2-yl)-2,5-diphenyltetrazolium bromide (MTT, Dojinedo Labs., Japan) resolved in phosphate buffered saline (PBS) was added into each well for final 6 hours of culture. The culture was completed by added 50 ul of 10% SDS resolved into 0.1 N HCl solution and after kept in 37°C for 18 hours, the absorbance at 620 nm was measured.

Experiment [6] deals with IL-4. Briefly: Ascaris-immunized mouse splenocytes (in vivo dosing): IL-4 production, ELISA. The conditions noted are these: 100 mg/kg/day orally 5 times weekly for 3 weeks; splenocytes cultured with 40 µg/ml DNP-ascaris 3 days; non-sensitized taken as 1 (sensitized 0.5% MC control 15.8). Details: species or system Balb/c mice. The method, then:
as §2, §3

The test system of experiment [7] is ascaris-immunized mouse splenocytes. Description: Ascaris-immunized mouse splenocytes (in vivo dosing): DNP-ascaris specific growth response, MTT. Details: species or system Balb/c mice. The conditions noted are these: 100 mg/kg/day orally 5 times weekly for 3 weeks; splenocytes cultured with 12.5 µg/ml DNP-ascaris 3 days; absorbance of non-sensitized splenocytes taken as 1 (sensitized 0.5% MC control 5.52). The procedure:
Method: Female Balb/c mice at 9 weeks of age (purchased from Shizuoka Laboratory Animal Center, Japan) were intraperitoneally administered 40 µg/mouse DNP-ascaris (2,4-dinitrophenylated ascaris extract, produced by LSL) together with Freund's complete adjuvant (FCA, produced by Difco, USA), 3 weeks later, splenocytes were collected. The compound 1((±)-7-(3,5,6-trimethyl-1,4-benzoquino-2-yl)-7-phenylheptonoic acid) was suspended in 0.5% methyl cellulose (MC) and orally administered at 100 mg/kg/day 5 times weekly for 3 weeks, starting at the day before DNP-ascaris administration. After final oral administration, the splenocyte mixture was prepared from the spleens of 5 animals per group, and suspended in RPMI-1640 medium (produced by Bio Whittaker, Inc., USA) containing inactivated fetal bovine serum (10% v/v, produced by Difco, USA), 2-mercaptoethanol (50 µM), L-glutamine (2 mM) and gentamicin (20 µg/ml) to yield a single cell suspension. After cell number was set to 3.3 × 10^6 cells/ml, DNP-ascaris was added to 96-well round-bottomed plates (produced by Sumitomo Bakelite Co., Ltd., Japan) at 12.5 µg/ml, and cultured at 37°C for 3 days in an incubator containing 5% carbon dioxide. […] To this culture, a 10% SDS-0.01N HCl mixture was added at 50 µl per well, followed by incubation in the carbon dioxide incubator for 18 hours, after which absorbance at 620 nm was determined.

A further experiment relates to IL-5 mRNA. Description: IL-5 mRNA expression in ovalbumin-immunized mouse splenocytes (oral dosing), RT-PCR. It counts as in vivo, Balb/c mice. The conditions noted are these: 10 and 100 mg/kg orally for two weeks; splenocytes cultured with 10 ug/ml OVA for 4, 7 and 24 hours; Fig. 1. The procedure: Method: Eight-week-old male Balb/c mice (Charles River Japan) immunized i.p. with 1 ug OVA absorbed to 1 mg Alum twice at an unterval of a week. Two weeks after the first immunization, splenocytes were prepared in RPMI-1640 (BioWhittaker, Inc., USA) containing 10% heat-inactivated fetal bovine serum (FBS, Bio Whittaker, Inc., USA), 50 uM 2-mercaptoethanol, 2 mM L-glutamine, and 20 ug/ml gentamicin. Compound 1 ((±)-7-(3,5,6-trimethyl-1,4-benzoquino-2-yl)-7-phenylheptonoic acid) at 10 and 100 mg/kg suspended with 0.5% methyl cellulose (MC) was given orally in a volume of 20 ml/kg for two weeks from a day before first immunization. […] Following the heat inactivation at 95°C for 10 min, one fifth of the cDNA mixtures was amplified by Ex Taq DNA polymerase (Takara Shuzoh, Japan) with the appropriate oligonucleatide primers (mouse IL-5 and β-actin amplimer set (Clontech). A DNA Thermal Cycler (Perkin Elmer) was used for 50 DNA amplification cycles, with a denaturation step at 95°C for 1 min, an annealing step at 55°C for 2 min, and an extension step at 72°C for 3 min. Twenty percent of the amplified DNA was analyzed by electrophoresis in a 2% GTG agarose gel. After staining with ethidium bromide, the DNA band was photographed under UV light. The data of the negatives were analyzed by NIH Image 1.55 software. […]

In experiment [8] the test system is IL-5. Description: Ovalbumin-immunized mouse splenocytes (oral dosing): IL-5 production, ELISA. The conditions noted are these: 100 mg/kg orally for two weeks, 10 ug/ml OVA 3 days. It counts as in vivo, Balb/c mice. The method, then: as §4, §5

`CC1=C(C)C(=O)C(C(CCCCCCCCC(=O)O)c2ccccc2)=C(C)C1=O` (stereo not drawn) [Compound 4]: the inhibition at 25 µM is 87% in the experiment on IL-4 [1] and 60% in experiment [2].
`CC1=C(C)C(=O)C(C(CCCCCCC(=O)O)c2ccccc2)=C(C)C1=O` (stereo not drawn) [Compound 2]: the results for the inhibition at 25 µM (in the experiment on IL-4 [1]; in [2]) were 38% and 40%, respectively.
Taken in the same sequence, the figures for `COC1=C(OC)C(=O)C(C(CCCCCC(=O)O)c2ccc(C(C)C)cc2)=C(C)C1=O` (stereo not drawn) [Compound 6] were 57% and 33%.
For `CC1=C(C)C(=O)C(C(CCCCCC(=O)O)c2ccccc2)=C(C)C1=O` (racemic) [Compound 1, (±)-7-(3,5,6-trimethyl-1,4-benzoquinon-2-yl)-7-phenylheptanoic acid], the “Cytokine Production, Relative Value IL-5” value in the experiment with IL-5 [3] was 13.6. Further, the “Cytokine Production, Relative Value Exp. 1 IL-4” value in the experiment on IL-4 [4] (Exp. 1, non-sensitized taken as 1 (sensitized 0.5% MC control 24.7)) turned out to be 7.7. Moreover, the “Cytokine Production, Relative Value Exp. 2 IL-4” value with IL-4 [4] (Exp. 2, non-sensitized taken as 1 (sensitized 0.5% MC control 14.2)) worked out at 6.94. Moreover, the “OVA-Specific Growth Response, Relative Value” in experiment [5] was determined as 1.75. Besides, the inhibition at 25 µM in the experiment on IL-4 [1] was 15%; in experiment [2] it was 44%. Besides, the “Cytokine Production, Relative Value IL-4” value with IL-4 [6] came out at 9.21. The “DNP-ascaris Specific Growth Response, Relative Value” in experiment [7] is 3.37. Further, the “antigen-stimulated IL-5 mRNA expression (ratio to β-actin PCR product)” value in the experiment on IL-5 mRNA was “inhibits antigen-stimulated IL-5 mRNA expression”. Moreover, the “Cytokine Production, Relative Value Exp. 1 IL-5” value with IL-5 [8] (Exp. 1, non-sensitized taken as 1 (sensitized 0.5% MC control 7.3)) is 4.8. For the same compound, in the experiment with IL-5 [8] (Exp. 2, non-sensitized taken as 1 (sensitized 0.5% MC control 31.8)), the “Cytokine Production, Relative Value Exp. 2 IL-5” value came out at 21.7.
`COC1=C(OC)C(=O)C(C(CCCCCO)c2ccc(OC)cc2)=C(C)C1=O` (stereo not drawn) [Compound 5]: the inhibition at 25 µM in the experiment on IL-4 [1] is 80%; in experiment [2], 46%.
In the case of `CC1=C(C)C(=O)C(C(CCC(=O)O)c2ccccc2)=C(C)C1=O` (stereo not drawn) [Compound 3], the inhibition at 25 µM in the experiment with IL-4 [1] was determined as 38%; in experiment [2], 36%.
